Reference: PMC12797502, “Effects of emodepside on single-channel properties of Onchocerca volvulus SLO-1A (BK) potassium channels” (Parasites & Vectors, 2025)

Target: T1, Ovo-SLO-1A (Onchocerca volvulus, UniProt A0A2K6W0E9)
T1 construct: T2A-linked GFP as transfection marker; homotetramer; Ala350 printed in S6 (natural residue)
Test: inside-out and whole-cell patch clamp, transfected HEK293 cells
Type: biochemical
Conditions: activator; 0.3 µM (inside-out, +20 mV, 100 µM free Ca2+, bath pH 7.2) or 1 µM (whole-cell, +20 mV); room temperature; empty-vector control

T1 sequence (A0A2K6W0E9 1-1119): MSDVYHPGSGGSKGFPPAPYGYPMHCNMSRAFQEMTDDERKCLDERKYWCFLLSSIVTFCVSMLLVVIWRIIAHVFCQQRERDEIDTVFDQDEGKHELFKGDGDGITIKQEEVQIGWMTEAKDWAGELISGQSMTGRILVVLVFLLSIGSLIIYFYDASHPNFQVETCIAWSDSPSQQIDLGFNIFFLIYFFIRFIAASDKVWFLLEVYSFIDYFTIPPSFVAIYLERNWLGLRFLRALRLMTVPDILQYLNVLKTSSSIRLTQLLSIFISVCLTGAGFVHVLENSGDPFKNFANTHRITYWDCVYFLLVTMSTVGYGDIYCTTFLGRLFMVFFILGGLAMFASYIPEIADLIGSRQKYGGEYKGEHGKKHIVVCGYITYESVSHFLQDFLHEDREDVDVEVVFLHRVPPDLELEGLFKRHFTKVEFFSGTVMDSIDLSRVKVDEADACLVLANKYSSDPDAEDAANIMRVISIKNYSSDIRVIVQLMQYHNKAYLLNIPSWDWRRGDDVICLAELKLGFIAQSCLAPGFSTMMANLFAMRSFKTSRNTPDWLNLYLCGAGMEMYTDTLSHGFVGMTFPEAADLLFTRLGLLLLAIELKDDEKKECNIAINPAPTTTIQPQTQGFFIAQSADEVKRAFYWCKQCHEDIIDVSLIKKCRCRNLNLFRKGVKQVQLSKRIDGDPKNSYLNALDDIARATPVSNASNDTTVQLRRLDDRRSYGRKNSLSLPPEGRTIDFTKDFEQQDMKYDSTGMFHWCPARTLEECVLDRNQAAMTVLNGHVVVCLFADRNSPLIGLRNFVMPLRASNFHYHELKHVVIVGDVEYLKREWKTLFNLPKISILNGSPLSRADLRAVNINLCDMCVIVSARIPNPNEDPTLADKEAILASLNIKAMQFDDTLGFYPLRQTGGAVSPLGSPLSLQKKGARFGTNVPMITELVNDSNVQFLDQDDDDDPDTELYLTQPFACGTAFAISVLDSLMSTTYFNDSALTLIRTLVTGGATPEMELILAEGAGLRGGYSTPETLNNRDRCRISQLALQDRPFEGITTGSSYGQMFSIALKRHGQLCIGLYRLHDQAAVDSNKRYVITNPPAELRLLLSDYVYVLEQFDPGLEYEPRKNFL

Question: How did the “inside-out and whole-cell patch clamp, transfected HEK293 cells” value turn out when CC(C)C[C@H]1C(=O)O[C@H](Cc2ccc(N3CCOCC3)cc2)C(=O)N(C)[C@@H](CC(C)C)C(=O)O[C@H](C)C(=O)N(C)[C@@H](CC(C)C)C(=O)O[C@H](Cc2ccc(N3CCOCC3)cc2)C(=O)N(C)[C@@H](CC(C)C)C(=O)O[C@H](C)C(=O)N1C [Emodepside] was run?
Answer: The probability of the channel being open, Popen, significantly increased
